Data from patent publication US20100273206A1, “DIAGNOSTIC IN VITRO METHOD FOR ASSESSING VON WILLEBRAND DISEASE AND INCREASED BLEEDING RISK ASSOCIATED WITH VON WILLEBRAND DISEASE AND ACQUIRED OR CONGENITAL DISORDERS OF PLATELET FUNCTION” (priority 2007, published 2010).

How the values were obtained:
[1] = tested on: VWD type 1 patients; assay: In vivo therapy control (DDAVP); set-up: species or system human; conditions: three VWD type 1 patients; before, 30 min and 180 min after DDAVP
Source text: Therapy in VWD may be necessary to alleviate a bleeding episode or to prevent bleeding episode. Most individuals with type 1 VWD generally are managed effectively using DDAVP (Desmopressin acetate), which acts to release endogenous stored VWF. It is usual to conduct a trial of DDAVP and then monitor the response by subsequent blood sampling and testing. […] The method is a simple and rapid tool to discriminate responders from nonresponders to DDAVP. The advantage of this method is the close to immediate test time obtained. The result is available very soon after blood sampling. In contrast the VWF:CB result is generally obtained some days after blood sampling. The values for the amplitude ratio, the VWF:Ag and VWF-RCo are shown in figure 7 for three time points (before, 30 min after and 180 min after administration of DDAVP).

[2] = tested on: citrate-stabilized blood from a healthy patient; assay: TEG (Rotem) of kaolin-activated citrated blood incubated with increasing amounts of ristocetin; type: cell-based, human; conditions: 10 min incubation, increasing final ristocetin concentration (up to 1.05 mg/ml)
Method: Citrate-stabilized blood from a healthy patient was transferred to a vial containing a standardized kaolin reagent and mixed by inversion The kaolin reagent was purchased from Haemoscope Corporation. The mixture was mixed well and divided into two 500 μL aliquots. Different amounts of ristocetin at a concentration of 15 mg mL^−1 was added to one part of the activated blood aliquots and both samples were incubated on a mixer for 10 min. 300 μL of both aliquots were filled to TEG assay cups and 20 μL of 0.2 M CaCl2 were added. The TEG tracings were allowed to run as least until the maximal amplitude was reached using a Rotem Analyser. […] Dependent of the final ristocetin concentration a decrease of the maximal amplitude and an increase in the clotting time were observed.

[3] = tested on: citrate-stabilized blood (platelets and VWF); assay: TEG maximal amplitude with versus without ristocetin preincubation; type: cell-based, human; conditions: for maximal amplitude after ristocetin preincubation relative to maximal amplitude without preincubation: 25 μL of 15 mg/mL ristocetin per 500 μL, 10 min
Method: If TEG is the assay to determine the viscoelastic change the platelet activation in response to the activator of platelet aggregation for example ristocetin can by way of non limiting example be determined from the maximum amplitudes in the control without added platelet activator (MA) and the sample with the added platelet activator Ristocetin (MARistocetin): which can then be expressed as the ratio (MARistocetin/MA)*100. The percentage change is determined to assess individual subject's responses, thus providing an indication of relative response to a certain dose of ristocetin.
Analyser and the reagents were from Haemoscope Corporation. 1.3 mL of blood was collected in 3.18% trisodium citrate (1:9 anticoagulant to blood). One millilitre of citrate-stabilized blood was transferred to a vial containing a standardized kaolin reagent and mixed by inversion. The mixture was mixed well and divided into two 500 μL aliquots. 25 μL ristocetin at a concentration of 15 mg mL^−1 was added to one part of the activated blood aliquots and both samples were incubated on a mixer for 10 min. 360 μL of both aliquots were filled to TEG assay cups and 20 μL of 0.2 M CaCl2 were added. The TEG tracings were allowed to run as least until the maximal amplitude was reached.
According to the procedure in example 2 blood samples from healthy patients and patients with from VWD were tested. All VWD samples derived from patients diagnosed as having VWD using standard criteria. In addition to VWD plasma, a number of normal samples were also collected and used for comparative studies. The platelet activation in response to ristocetin is determined from the maximum amplitudes in the control (MA) and ristocetin activated trace (MARistocetin): MARicocetin/MA*100. The percentage change was calculated to assess individual subject's responses, thus providing an indication of relative response to a certain dose of ristocetin (0.71 mg/ml and 1,05 mg/ml final concentration). The Kaolin induced sample without adding ristocetin acted as the control measurement. […] Almost all platelets are deactivated and no more platelet contribution to the clot strength is detectable.

NC(=O)CC[C@@H]1NC(=O)[C@H](Cc2ccccc2)NC(=O)[C@H](Cc2ccc(O)cc2)NC(=O)CCSSC[C@@H](C(=O)N2CCC[C@H]2C(=O)N[C@H](CCCN=C(N)N)C(=O)NCC(N)=O)NC(=O)[C@H](CC(N)=O)NC1=O [DDAVP, Desmopressin acetate]
TEG ratio (maximal amplitude with ristocetin/without ristocetin)*100 [1]: normalize | VWF:Ag [1]: increase | ristocetin cofactor activity [1]: increase

ristocetin
clotting time [2]: increase | maximal amplitude [2]: decrease | maximal amplitude after ristocetin preincubation relative to maximal amplitude without preincubation ([3]; blood from a VWD type 1 patient): about 75% | maximal amplitude after ristocetin preincubation relative to maximal amplitude without preincubation ([3]; blood from a VWD type 3 patient): ~100% | maximal amplitude after ristocetin preincubation relative to maximal amplitude without preincubation ([3]; normal blood): about 20% | clot strength after ristocetin incubation ([3]; patients with VWD, 0.71 mg/ml and 1,05 mg/ml final concentration): not or only slightly modified | maximum amplitude after incubation with ristocetin ([3]; patients without VWD, 0.71 mg/ml and 1,05 mg/ml final concentration): significant decrease
